Among the data in patent publication US8580829B2 (Boehringer Ingelheim International GmbH, priority 2010, dated 2013) are IC50 values, retold here.

The test system of assay [1] is synthesis of LTB4 in human whole blood. Nature of the assay: human whole blood LTB4 production inhibition assay. It counts as cell-based. Conditions: Homo sapiens, heparinized human whole blood, calcimycin 20 μM; read-out: hWB LTB4 IC50. The procedure, abridged:
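Heparinized human whole blood was preincubated with compound for 15 min at 37° C, then stimulated with calcimycin (20 μM final, in PBS pH 7.4) for a further 30 min at 37° C. Plasma LTB4 was quantified by antibody-based homogeneous time-resolved fluorescence.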

The target of assay [2] is T1, recombinant human FLAP protein (Homo sapiens, UniProt P20292).
T1 construct: made in house; host or cells: Sf9 insect cells (100,000 x g membrane fraction)
T1 sequence (P20292 1-161): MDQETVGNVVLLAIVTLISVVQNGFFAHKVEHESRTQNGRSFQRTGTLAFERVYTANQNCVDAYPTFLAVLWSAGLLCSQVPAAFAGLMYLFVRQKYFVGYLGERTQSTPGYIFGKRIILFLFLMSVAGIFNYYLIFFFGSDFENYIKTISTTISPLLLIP
Nature of the assay: FLAP binding assay (Scintillation Proximity Assay, displacement of [125I]L-691,831). Conditions: recombinant human FLAP membranes, [125I]L-691,831 probe; read-out: FLAP SPA IC50. The procedure, abridged:
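WGA scintillation proximity beads were stirred 1 h with 5 μg of FLAP-containing membrane protein. The membranes came from baculovirus Sf9 cells, Dounce-lysed and spun to a 100,000×g pellet in buffer at pH 7.5.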

With `CN(C)C(=O)C(C)(C)Cn1cc(-c2nc(C3(c4ccc(-c5cnc(N)nc5)cc4)CCC3)no2)cn1` [Example 129, 3-[4-(3-{1-[4-(2-Amino-pyrimidin-5-yl)-phenyl]-cyclobutyl}-1,2,4-oxadiazol-5-yl)-pyrazol-1-yl]-2,2,N,N-tetramethyl-propionamide], the IC50 in assay [1] came out at 140 nM; in assay [2] it was 3.9 nM.
In the case of `Cn1cc(-c2nc(C3(c4ccc(-c5cnc6c(c5)CCN6)cc4)CCC3)no2)cn1` [Example 272, 5-(4-{1-[5-(1-Methyl-1H-pyrazol-4-yl)-[1,2,4]oxadiazol-3-yl]-cyclobutyl}-phenyl)-2,3-dihydro-1H-pyrrolo[2,3-b]pyridine], the IC50 in assay [1] turned out to be 79 nM; in assay [2], 3.8 nM.
On the same counts, the results for `CCn1nc(C)cc1-c1nc(C2(c3ccc(-c4cnc(N)nc4)cc3)CCC2)no1` [Example 162, 5-(4-{1-[5-(2-Ethyl-5-methyl-2H-pyrazol-3-yl)-1,2,4-oxadiazol-3-yl]-cyclobutyl}-phenyl)-pyrimidin-2-ylamine] are 1000 nM and 6.4 nM.
For `CS(=O)(=O)CCn1cc(-c2nc(C3(c4ccc(-c5cnc(N)nc5)cc4)CCC3)no2)cn1` [Example 231, 5-[4-(1-{5-[1-(2-Methanesulfonyl-ethyl)-1H-pyrazol-4-yl]-[1,2,4]oxadiazol-3-yl}-cyclobutyl)-phenyl]-pyrimidin-2-ylamine], the IC50 in assay [1] was determined as 61 nM; in assay [2], 2.3 nM.
Take `Cc1cc(-c2nc(C3(c4ccc(-c5cnc(N)nc5)cc4)CCC3)no2)ccc1O` [Example 99, 4-(3-{1-[4-(2-Amino-pyrimidin-5-yl)-phenyl]-cyclobutyl}-1,2,4-oxadiazol-5-yl)-2-methyl-phenol]: the values for the half-inhibitory concentration (IC50) in assay [1] and in assay [2] were 150 nM and 2 nM, respectively.
On the same counts, the results for `Nc1ncc(-c2ccc(C3(c4noc(-c5ccc(NCCO)nn5)n4)CCC3)cc2)cn1` [Example 112, 2-[6-(3-{1-[4-(2-Amino-pyrimidin-5-yl)-phenyl]-cyclobutyl}-1,2,4-oxadiazol-5-yl)-pyridazin-3-ylamino]-ethanol] are 760 nM and 1.4 nM.
For the compound `NCCn1cc(-c2nc(C3(c4ccc(-c5cnc(N)nc5)cc4)CCC3)no2)cn1` [Example 227, 5-[4-(1-{5-[1-(2-Amino-ethyl)-1H-pyrazol-4-yl]-[1,2,4]oxadiazol-3-yl}-cyclobutyl)-phenyl]-pyrimidin-2-ylamine], the IC50 was determined as 240 nM in assay [1] and 2.6 nM in assay [2].
Consider `COCCn1cnc(-c2nc(C3(c4ccc(-c5cnc(N)nc5)cc4)CCC3)no2)c1` [Example 88, 5-[4-(1-{5-[1-(2-Methoxy-ethyl)-1H-imidazol-4-yl]-1,2,4-oxadiazol-3-yl}-cyclobutyl)-phenyl]-pyrimidin-2-ylamine], for which the IC50 stood at 160 nM in assay [1] and 6.3 nM in assay [2].
For `Nc1ncc(-c2ccc(C3(c4noc(-c5cnc(N6CCC[C@@H]6CO)cn5)n4)CCC3)cc2)cn1` [Example 195, {(R)-1-[5-(3-{1-[4-(2-Amino-pyrimidin-5-yl)-phenyl]-cyclobutyl}-1,2,4-oxadiazol-5-yl)-pyrazin-2-yl]-pyrrolidin-2-yl}-methanol], in that order: 140 nM and 2.9 nM.
For `Nc1ncc(-c2ccc(C3(c4noc(-c5cnn(CC(=O)N6CCCCC6)c5)n4)CCC3)cc2)cn1` [Example 127, 2-[4-(3-{1-[4-(2-Amino-pyrimidin-5-yl)-phenyl]-cyclobutyl}-1,2,4-oxadiazol-5-yl)-pyrazol-1-yl]-1-piperidin-1-yl-ethanone], in that order: 120 nM and 3.2 nM.
Regarding `Nc1ncc(-c2ccc(C3(c4noc(-c5ccc(O)cc5)n4)CCC3)cc2)cn1` [Example 44, 4-(3-{1-[4-(2-Amino-pyrimidin-5-yl)-phenyl]-cyclobutyl}-1,2,4-oxadiazol-5-yl)-phenol], the results for the IC50 in assay [1] and in assay [2] were 75 nM and 3.1 nM, respectively.
In the case of `CC(C)(CO)n1cc(-c2nc(C3(c4ccc(-c5cnc(N)nc5)cc4)CCC3)no2)cn1` [Example 84, 2-[4-(3-{1-[4-(2-Amino-pyrimidin-5-yl)-phenyl]-cyclobutyl}-1,2,4-oxadiazol-5-yl)-pyrazol-1-yl]-2-methyl-propan-1-ol], the half-inhibitory concentration (IC50) in assay [1] was found to be 160 nM; in assay [2] it was 4 nM.
On the same counts, the results for `Nc1ncc(-c2ccc(C3(c4noc(N5CCC[C@H]5CO)n4)CCC3)cc2)cn1` [Example 288, [(S)-1-(3-{1-[4-(2-Amino-pyrimidin-5-yl)-phenyl]-cyclobutyl}-[1,2,4]oxadiazol-5-yl)-pyrrolidin-2-yl]-methanol] are 310 nM and 26 nM.
Consider `CO[C@H]1CCN(C(=O)Cn2cc(-c3nc(C4(c5ccc(-c6cnc(N)nc6)cc5)CCC4)no3)cn2)C1` [Example 259, 2-[4-(3-{1-[4-(2-Amino-pyrimidin-5-yl)-phenyl]-cyclobutyl}-[1,2,4]oxadiazol-5-yl)-pyrazol-1-yl]-1-((S)-3-methoxy-pyrrolidin-1-yl)-ethanone], for which the IC50 worked out at 210 nM in assay [1] and 16 nM in assay [2].
On the same counts, the results for `Nc1ncc(-c2ccc(C3(c4noc(-c5ccc(NCCO)nc5)n4)CCC3)cc2)cn1` [Example 180, 2-[5-(3-{1-[4-(2-Amino-pyrimidin-5-yl)-phenyl]-cyclobutyl}-1,2,4-oxadiazol-5-yl)-pyridin-2-ylamino]-ethanol] are 73 nM and 0.85 nM.
For `Cc1ccc(-c2nc(C3(c4ccc(-c5cnc(N)nc5)cc4)CCC3)no2)cn1` [Example 152, 5-(4-{1-[5-(6-Methyl-pyridin-3-yl)-1,2,4-oxadiazol-3-yl]-cyclobutyl}-phenyl)-pyrimidin-2-ylamine], in that order: 210 nM and 3.5 nM.
With `Nc1ncc(-c2ccc(C3(c4noc(-c5c[nH]cn5)n4)CCC3)cc2)cn1` [Example 153, 5-(4-{1-[5-(1H-Imidazol-4-yl)-1,2,4-oxadiazol-3-yl]-cyclobutyl}-phenyl)-pyrimidin-2-ylamine], the IC50 in assay [1] came to 270 nM; in assay [2] it was 2.5 nM.
For `Cn1cc(-c2nc(C3(c4ccc(-c5cnc(N)nc5)cc4)CC(F)(F)C3)no2)cn1` [Example 122, 5-(4-{3,3-Difluoro-1-[5-(1-methyl-1H-pyrazol-4-yl)-1,2,4-oxadiazol-3-yl]-cyclobutyl}-phenyl)-pyrimidin-2-ylamine], in that order: 360 nM and 14 nM.
For `Nc1ncc(-c2ccc(C3(c4noc(-c5cn[nH]c5)n4)CCC3)cc2)cn1` [Example 175, 5-(4-{1-[5-(1H-Pyrazol-4-yl)-1,2,4-oxadiazol-3-yl]-cyclobutyl}-phenyl)-pyrimidin-2-ylamine], in that order: 110 nM and 2.3 nM.
As to `Nc1ncc(-c2ccc(C3(c4noc(N5CC[C@@H](O)C5)n4)CCC3)cc2)cn1` [Example 290, (R)-1-(3-{1-[4-(2-Amino-pyrimidin-5-yl)-phenyl]-cyclobutyl}-[1,2,4]oxadiazol-5-yl)-pyrrolidin-3-ol], the concentration for half-maximal inhibition (IC50) in assay [1] was 230 nM; in assay [2] it was 35 nM.
On the same counts, the results for `Nc1ncc(-c2ccc(C3(c4noc(-c5cnn(C(=O)N6CCOCC6)c5)n4)CCC3)cc2)cn1` [Example 212, [4-(3-{1-[4-(2-Amino-pyrimidin-5-yl)-phenyl]-cyclobutyl}-[1,2,4]oxadiazol-5-yl)-pyrazol-1-yl]-morpholin-4-yl-methanone] are 22 nM and 2.2 nM.
On the same counts, the results for `Nc1ncc(-c2ccc(C3(c4noc(-c5nccnc5N)n4)CCC3)cc2)cn1` [Example 19, 5-(4-{1-[5-(3-Amino-pyrazin-2-yl)-1,2,4-oxadiazol-3-yl]-cyclobutyl}-phenyl)-pyrimidin-2-ylamine] are 1400 nM and 11 nM.
For `Cc1ncc(-c2nc(C3(c4ccc(-c5cnc(N)nc5)cc4)CCC3)no2)[nH]1` [Example 10, 5-(4-{1-[5-(2-Methyl-3H-imidazol-4-yl)-1,2,4-oxadiazol-3-yl]-cyclobutyl}-phenyl)-pyrimidin-2-ylamine], in that order: 290 nM and 2.1 nM.
On to `Cn1cc(-c2nc(C3(c4ccc(-c5cnc6[nH]ccc6c5)cc4)CCC3)no2)cn1` [Example 273, 5-(4-{1-[5-(1-Methyl-1H-pyrazol-4-yl)-[1,2,4]oxadiazol-3-yl]-cyclobutyl}-phenyl)-1H-pyrrolo[2,3-b]pyridine], for which the 50% inhibitory concentration (IC50) in assay [1] is 79 nM; in assay [2], 3.9 nM.
Take `CC(C)(CO)Nc1cnc(-c2nc(C3(c4ccc(-c5cnc(N)nc5)cc4)CCC3)no2)cn1` [Example 121, 2-[5-(3-{1-[4-(2-Amino-pyrimidin-5-yl)-phenyl]-cyclobutyl}-1,2,4-oxadiazol-5-yl)-pyrazin-2-ylamino]-2-methyl-propan-1-ol]: the IC50 in assay [1] came to 450 nM; in assay [2] it was 4.9 nM.
On to `Nc1cnc(-c2nc(C3(c4ccc(-c5cnc(N)nc5)cc4)CCC3)no2)cn1` [Example 193, 5-(4-{1-[5-(5-Amino-pyrazin-2-yl)-1,2,4-oxadiazol-3-yl]-cyclobutyl}-phenyl)-pyrimidin-2-ylamine], for which the IC50 in assay [1] came to 45 nM; in assay [2] it was 1.6 nM.
For the compound `Nc1ncc(-c2ccc(C3(c4noc(-c5ccc6[nH]ncc6c5)n4)CCC3)cc2)cn1` [Example 190, 5-(4-{1-[5-(1H-Indazol-5-yl)-1,2,4-oxadiazol-3-yl]-cyclobutyl}-phenyl)-pyrimidin-2-ylamine], the IC50 in assay [1] worked out at 27 nM; in assay [2], 1.2 nM.
